Our source for the GI50 and TGI values is PubChem BioAssay (NCI).

SMILES strings stand for the structures. Where “and” joins values, the source holds several entries; their conditions need not be identical. Equal values may be shown once.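 Cultured in 96-well plates, cells were exposed to test compound for 48 hours across five concentrations. Abbreviation: GI50, concentration required for 50% inhibition of growth. The concentration for full growth arrest is given as TGI.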

Common to all, as to assay: inhibition of tumour cell growth, NCI panel, 48 h
The subject of test [1] is SNB-75 CNS.
Test [2] concerns SW-620 colon.
The test system of test [3] is SF-268 CNS.
The subject of test [4] is NCI-H226 lung.
For test [5], the system named is SK-MEL-28 melanoma.
For test [6], the system named is T-47D breast.
In test [7] the test system is K-562 leukemia.
In test [8] the test system is OVCAR-8 ovarian.
Test [9] relates to OVCAR-4 ovarian.
The test system of test [10] is MDA-MB-231 breast.

Turning to `COc1ccc(Cl)c(Nc2nc3ccccc3nc2NS(=O)(=O)c2cccc(NC(=O)C(C)(C)N)c2)c1`, the GI50 is 1.35 µM and 0.481 µM in test [1]; 11.6 µM and > 10 µM in [2]; 10.9 µM and 9.94 µM in test [3]; 15.3 µM and > 10 µM in test [4]; 7.93 µM and > 10 µM in [5]; 0.443 µM and 0.638 µM in test [6]. Further, the GI50 was 14.9 µM and > 10 µM in test [7]; 14 µM and > 10 µM in test [8]; 14.8 µM and > 10 µM in [9]; 14.5 µM and > 10 µM in test [10]. Also, the TGI is 10 µM and 6.6 µM in test [1]; 26.2 µM and > 10 µM in test [2]; 25.5 µM and > 10 µM in test [3]; 40.2 µM and > 10 µM in test [4]; 22.2 µM and > 10 µM in [5]; 5.05 µM and 5.77 µM in [6]. Also, the TGI in test [7] was 32.6 µM and > 10 µM; in test [8] it was 32.8 µM and > 10 µM; in test [9] it was 28.3 µM and > 10 µM; in test [10], 32.6 µM and > 10 µM.
In the case of `O=C(Nc1ccc(Oc2cccc(F)c2)c(Cl)c1)c1cnccn1`, the GI50 in test [1] is 1.06 µM; in test [2], 0.366 µM; in test [3], 7.81 µM; in [4] it was 2.6 µM; in [5] it was 28.6 µM; in test [6], 1.33 µM. Moreover, the GI50 in [7] is 0.242 µM; in test [8] it was 2.51 µM; in test [9] it was 36.6 µM; in [10] it was 3.28 µM. Besides, the TGI in test [1] is 4.22 µM; in test [2], more than 50 µM; in [3], more than 50 µM; in test [4], more than 50 µM; in test [5] it was more than 50 µM; in test [6], more than 50 µM. The TGI in test [7], in [8], in test [9] and in [10] was more than 50 µM each time.
Turning to `Cc1ccc(C(=O)NC2CCC2)cc1-c1ccc(C(=O)NCC2CC2)cc1`, the GI50 is more than 25 µM in test [1]; more than 25 µM in [2]; more than 25 µM in test [3]; more than 25 µM in [4]; more than 25 µM in test [5]; 12.9 µM in test [6]. Further, the GI50 in test [7], in [8], in test [9] and in test [10] was more than 25 µM in each case. The TGI in test [1], in [2], in test [3], in [4], in test [5] and in test [6] was more than 25 µM in each case. Besides, the TGI in test [7], in [8], in [9] and in test [10] was more than 25 µM in each case.
On to `c1ccc2[nH]c(-c3cc(-c4ccc5c(c4)OCO5)n[nH]3)nc2c1`, for which the GI50 in test [1] was 10.1 µM; in [2], 5.87 µM; in [3], 4.77 µM; in [4], 4.2 µM; in [5] it was 4.85 µM; in [6], 3.32 µM. For the same compound, the GI50 was 3.83 µM in test [7], 3.97 µM in test [8], 2.16 µM in test [9] and 4.12 µM in test [10]. Besides, the TGI in test [1] turned out to be 23.7 µM; in test [2] it was 21.4 µM; in [3], 22.4 µM; in [4] it was 21 µM; in [5] it was 18.5 µM; in test [6], 16.2 µM. Besides, the TGI in test [7] turned out to be 22.1 µM; in test [8] it was 18 µM; in test [9], 12 µM; in [10], 20.2 µM.
Turning to `NC(=O)c1ccc(-c2nc(-c3ccc4c(c3)OCO4)c(-c3ccccn3)[nH]2)cc1`, the GI50 in test [1] is > 16.5 µM and 21.3 µM; in test [2], > 25 µM and 65.6 µM; in test [3], > 25 µM and 50.7 µM; in test [4], > 25 µM and 22.2 µM; in test [5], > 25 µM and 51.1 µM; in test [6], > 25 µM and 21.8 µM. In addition, the GI50 in test [7] is > 25 µM and 37.2 µM; in test [8] it was > 25 µM and 34.1 µM; in test [9] it was > 25 µM and 31.1 µM; in test [10] it was 21.3 µM and 14.8 µM. The TGI was more than 90.8 µM in [1]; more than 100 µM in test [2]; more than 100 µM in test [3]; more than 63.1 µM in [4]; more than 100 µM in [5]; more than 100 µM in test [6]. Besides, the TGI in test [7] is more than 100 µM; in test [8], more than 100 µM; in [9], more than 100 µM; in test [10] it was > 25 µM and 59.1 µM.
As for `O=C1NOC(c2ccc(O)cc2)(c2ccc(O)cc2)c2ccccc21`, the GI50 in test [1], in test [2], in [3], in [4], in test [5] and in test [6] was more than 100 µM throughout. For the same compound, the GI50 in [7], in test [8], in [9] and in [10] was more than 100 µM each time. Further, the TGI in test [1], in test [2], in test [3], in [4], in test [5] and in test [6] was more than 100 µM each time. For the same compound, the TGI in test [7], in [8], in [9] and in [10] was more than 100 µM in each case.
Take `C#CCNCCN1C(=O)c2ccc3c4c(ccc(c24)C1=O)C(=O)N(CCNCC#C)C3=O`: the GI50 is 5.95 µM in [1]; 1.92 µM in test [2]; 3.78 µM in test [3]; 2.96 µM in [4]; 10.4 µM in test [5]; 4.16 µM in test [6]. The GI50 in [7] was 5.25 µM; in test [8], 2.25 µM; in [9], 1.96 µM; in test [10], 5.24 µM. Moreover, the TGI in test [1] is 14.5 µM; in test [2], 11.8 µM; in test [3], 24.2 µM; in test [4], 12.2 µM; in test [5], 27.6 µM; in test [6], 14.8 µM. For the same compound, the TGI in test [7] was determined as 50 µM; in test [8], 20.8 µM; in test [9] it was 7.47 µM; in test [10], 13.6 µM.
